This test deals with T1, human chemokine receptor 2 isoform B (CCR2) (Homo sapiens, UniProt P41597).
T1 sequence (P41597 1-360 isoform P41597-2): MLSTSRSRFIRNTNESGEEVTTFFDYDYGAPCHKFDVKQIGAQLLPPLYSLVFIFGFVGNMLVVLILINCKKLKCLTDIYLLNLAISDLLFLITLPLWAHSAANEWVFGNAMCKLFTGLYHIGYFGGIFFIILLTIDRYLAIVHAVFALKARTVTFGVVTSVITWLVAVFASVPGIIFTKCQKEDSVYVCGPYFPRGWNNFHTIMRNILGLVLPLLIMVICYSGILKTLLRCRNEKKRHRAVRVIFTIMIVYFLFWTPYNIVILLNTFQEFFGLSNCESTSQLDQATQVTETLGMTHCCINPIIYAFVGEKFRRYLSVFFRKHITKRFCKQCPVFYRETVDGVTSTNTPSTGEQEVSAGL
The test is described as follows: Calcium mobilization assay (FLIPR, MCP-1 stimulated CHOK1-CCR2B-A5 cells). The class given is cell-based. The following applies: Ca mobilisation assay, CCR2 antagonist activity, inhibition of MCP-1 induced calcium increase. As for the experimental part:
Calcium Mobilization Assay
CHOK1-CCR2B-A5 cells (from Euroscreen) stably overexpressing the human chemokine receptor 2 isoform B were cultured in Nutrient Hams F12 medium supplemented with 5% FBS, 100 U/ml penicillin, 100 μg/ml streptomycin, 400 μg/ml G418 and 5 μg/ml puromycin.
For the assay cells were grown overnight in 384-well black clear flat bottom polystyrene plates (Costar) at 37° C. at 5% CO2. After washing with DMEM, 20 mM Hepes, 2.5 mM probenecid, 0.1% BSA (DMEM assay buffer) cells were loaded with 4 μM Fluo-4 in the same DMEM assay buffer for 2 hours at 30° C. Excess dye was removed and cells were washed with DMEM assay buffer. 384-well compound plates were prepared with DMEM assay buffer/0.5% DMSO with or without various concentrations of test compounds. Usually compounds were tested for agonist and antagonist activity.
Test compounds were added to the assay plate and agonist activity was monitored as fluorescence for 80 seconds with a FLIPR (488 nm excitation; 510-570 nm emission; Molecular Devices). After 20-30 min. of incubation at 30° C., […] MCP-1 (R&D; Roche) was added and fluorescence was monitored again for 80 seconds. Increases in intracellular calcium are reported as maximum fluorescence after agonist exposure minus basal fluorescence before exposure. Antagonist activity is indicated as inhibitor concentration required for 50% inhibition of specific calcium increases.
A general note: A change in cytosolic calcium serves as a functional read-out for many receptors and channels.
Regarding `C[C@H]1C(=O)N([C@H](CO)CCN2CCC3(CC3)[C@H](O)C2)CCN1C(=O)Nc1ccc(Cl)c(Cl)c1` [Example 106, (S)-4-[(S)-3-((S)-4-Hydroxy-6-aza-spiro[2.5]oct-6-yl)-1-hydroxymethyl-propyl]-2-methyl-3-oxo-piperazine-1-carboxylic acid (3,4-dichloro-phenyl)-amide], the IC50 was found to be 1 nM.
With `C[C@H]1C(=O)N([C@@H](CCN2CCCCC2)COC(=O)Nc2ccc(Cl)c(Cl)c2)CCN1C(=O)Nc1ccc(Cl)c(Cl)c1` [Example 86, (3,4-Dichloro-phenyl)-carbamic acid (S)-2-[(S)-4-(3,4-dichloro-phenylcarbamoyl)-3-methyl-2-oxo-piperazin-1-yl]-4-piperidin-1-yl-butyl ester], the IC50 was determined as 192 nM.
Turning to `C[C@@H]1CN(CCCN2CCC3(CC3)[C@H](O)C2)C(=O)CCN1C(=O)Nc1ccc(Cl)c(Cl)c1` [Example 58, (R)-4-[3-((S)-4-Hydroxy-6-aza-spiro[2.5]oct-6-yl)-propyl]-2-methyl-5-oxo-[1,4]diazepane-1-carboxylic acid (3,4-dichloro-phenyl)-amide], the half-maximal inhibitory concentration (IC50) is 3 nM.
In the case of `C[C@H]1C(=O)N(CCCN2CCC3(CC3)[C@H](O)C2)CCN1C(=O)Nc1ccc(-c2ccccc2)cc1` [Example 76, (S)-4-[3-((S)-4-Hydroxy-6-aza-spiro[2.5]oct-6-yl)-propyl]-2-methyl-3-oxo-piperazine-1-carboxylic acid biphenyl-4-ylamide] it was 3 nM.
Regarding `C[C@H]1C[C@H](O)CN(CCCN2CCN(C(=O)Nc3ccc(Cl)c(Cl)c3)[C@@H](C)C2=O)C1` [Example 46, (S)-4-[3-((3S,5S)-3-Hydroxy-5-methyl-piperidin-1-yl)-propyl]-2-methyl-3-oxo-piperazine-1-carboxylic acid (3,4-dichloro-phenyl)-amide], the IC50 came to 7 nM.
The result for `O=C(Nc1ccc(Cl)c(Cl)c1)N1CCN(CCCN2CCCCC2)S(=O)(=O)CC1` [Example 21, 1,1-Dioxo-2-(3-piperidin-1-yl-propyl)-[1,2,5]thiadiazepane-5-carboxylic acid (3,4-dichloro-phenyl)-amide] reads 370 nM; that for `C[C@H]1C(=O)N(CCCN2CCC3(CC3)[C@H](O)C2)CCN1C(=O)Nc1cccc(Cl)c1` [Example 69, (S)-4-[3-((S)-4-Hydroxy-6-aza-spiro[2.5]oct-6-yl)-propyl]-2-methyl-3-oxo-piperazine-1-carboxylic acid (3-chloro-phenyl)-amide], 5 nM.
In the case of `O=C1CCN(C(=O)Nc2ccc(Cl)c(Cl)c2)CCN1CCCN1CCCCC1` [Example 11, 5-Oxo-4-(3-piperidin-1-yl-propyl)-[1,4]diazepane-1-carboxylic acid (3,4-dichloro-phenyl)-amide] it was 980 nM; in that of `C[C@H]1C(=O)N(C[C@@H](O)CN2CCC3(CC3)[C@H](O)C2)CCN1C(=O)Nc1cccc(Cl)c1` [Example 121, (S)-4-[(S)-2-Hydroxy-3-((S)-4-hydroxy-6-aza-spiro[2.5]oct-6-yl)-propyl]-2-methyl-3-oxo-piperazine-1-carboxylic acid (3-chloro-phenyl)-amide], 6 nM.
In the case of `C[C@H]1C(=O)N([C@@H](CCN2CCC3(CC3)[C@H](O)C2)C(=O)N(C)C)CCN1C(=O)Nc1ccc(Cl)c(Cl)c1` [Example 124, (S)-4-[(S)-1-Dimethylcarbamoyl-3-((S)-4-hydroxy-6-aza-spiro[2.5]oct-6-yl)-propyl]-2-methyl-3-oxo-piperazine-1-carboxylic acid (3,4-dichloro-phenyl)-amide], the IC50 was found to be 4 nM.
The result for `C[C@H]1C(=O)N(CCCN2CCC[C@H]2CO)CCN1C(=O)Nc1ccc(Cl)c(Cl)c1` [Example 50, (S)-4-[3-((S)-2-Hydroxymethyl-pyrrolidin-1-yl)-propyl]-2-methyl-3-oxo-piperazine-1-carboxylic acid (3,4-dichloro-phenyl)-amide] reads 120 nM; that for `C[C@H]1C(=O)N([C@@H](CCN2CCC3(CC3)[C@H](O)C2)COC(=O)C(C)(C)C)CCN1C(=O)Nc1ccc(Cl)c(Cl)c1` [Example 114, 2,2-Dimethyl-propionic acid (S)-2-[(S)-4-(3,4-dichloro-phenylcarbamoyl)-3-methyl-2-oxo-piperazin-1-yl]-4-((S)-4-hydroxy-6-aza-spiro[2.5]oct-6-yl)-butyl ester], 6 nM; that for `C[C@H]1C(=O)N(CCCCN2CCC3(CC3)[C@H](O)C2)CCN1C(=O)Nc1ccc(C(F)(F)F)cn1` [Example 99, (S)-4-[4-((S)-4-Hydroxy-6-aza-spiro[2.5]oct-6-yl)-butyl]-2-methyl-3-oxo-piperazine-1-carboxylic acid (5-trifluoromethyl-pyridin-2-yl)-amide], 24 nM.
In the case of `COC[C@H](CCN1CCC2(CC2)[C@H](O)C1)N1CCN(C(=O)Nc2ccc(Cl)c(Cl)c2)[C@@H](C)C1=O` [Example 80, (S)-4-[(S)-3-((S)-4-Hydroxy-6-aza-spiro[2.5]oct-6-yl)-1-methoxymethyl-propyl]-2-methyl-3-oxo-piperazine-1-carboxylic acid (3,4-dichloro-phenyl)-amide] it was 1 nM.
In the case of `COCC(CCN1CCC2(CC2)[C@H](O)C1)N1CC(C)N(C(=O)Nc2ccc(Cl)c(Cl)c2)CCC1=O` (stereo in doubt) [Example 68, (R)-4-[(S)-3-((S)-4-Hydroxy-6-aza-spiro[2.5]oct-6-yl)-1-methoxymethyl-propyl]-2-methyl-5-oxo-[1,4]diazepane-1-carboxylic acid (3,4-dichloro-phenyl)-amide] it was 3 nM; in that of `C[C@H]1C(=O)N(CCCN2CCCCC2)CCN1C(=O)Nc1ccc(F)c(Cl)c1` [Example 42, (S)-2-Methyl-3-oxo-4-(3-piperidin-1-yl-propyl)-piperazine-1-carboxylic acid (3-chloro-4-fluoro-phenyl)-amide], 110 nM.
For the molecule `O=C(Oc1ccc(Cl)c(Cl)c1)N1CCC(=O)N(C(CO)CCN2CCC3(CC3)[C@H](O)C2)CC1` (stereo partly drawn) [Example 9, (R,S)-4-[3-((S)-4-Hydroxy-6-aza-spiro[2.5]oct-6-yl)-1-hydroxymethyl-propyl]-5-oxo-[1,4]diazepane-1-carboxylic acid 3,4-dichloro-phenyl ester], the IC50 came to 420 nM.
The result for `COC(=O)[C@H](CCN1CCC2(CC2)[C@H](O)C1)N1CCN(C(=O)Nc2cccc(Cl)c2)CCC1=O` [Example 3, (S)-2-[4-(3-Chloro-phenylcarbamoyl)-7-oxo-[1,4]diazepan-1-yl]-4-((S)-4-hydroxy-6-aza-spiro[2.5]oct-6-yl)-butyric acid methyl ester] reads 270 nM; that for `COC[C@H](CCN1CCC2(CC2)[C@H](O)C1)N1CCN(C(=O)Nc2ccccc2)[C@@H](C)C1=O` [Example 84, (S)-4-[(S)-3-((S)-4-Hydroxy-6-aza-spiro[2.5]oct-6-yl)-1-methoxymethyl-propyl]-2-methyl-3-oxo-piperazine-1-carboxylic acid phenylamide], 42 nM.
In the case of `C[C@H]1C(=O)N(CCCN2CCCCC2)CCN1C(=O)Nc1ccc(-c2ccccc2)cc1` [Example 38, (S)-2-Methyl-3-oxo-4-(3-piperidin-1-yl-propyl)-piperazine-1-carboxylic acid biphenyl-4-ylamide] it was 210 nM.

By IC50 is commonly meant the point on the concentration scale where inhibition reaches its midpoint.

The values are drawn from patent US8071586B2, “Heterocyclyl compounds” (Hoffmann-La Roche Inc., priority 2008, dated 2011).
